One experiment concerns the target T1, MceG (Mycobacterium tuberculosis, UniProt P9WQL5).
T1 construct: gene mkl

Experiment [1] has as its target T2, CeoB (Mycobacterium tuberculosis, UniProt Q7D6R7).
The target of experiment [2] is T2, CeoB. This is another data set of the same source.

T2 sequence (Q7D6R7 entry or part of it): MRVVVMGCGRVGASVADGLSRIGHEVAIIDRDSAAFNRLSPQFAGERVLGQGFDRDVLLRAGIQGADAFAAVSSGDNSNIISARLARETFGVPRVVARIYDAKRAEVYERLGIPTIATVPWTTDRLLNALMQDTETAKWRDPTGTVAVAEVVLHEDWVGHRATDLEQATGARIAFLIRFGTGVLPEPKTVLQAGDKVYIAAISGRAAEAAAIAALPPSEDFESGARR
T1 sequence (P9WQL5 whole entry): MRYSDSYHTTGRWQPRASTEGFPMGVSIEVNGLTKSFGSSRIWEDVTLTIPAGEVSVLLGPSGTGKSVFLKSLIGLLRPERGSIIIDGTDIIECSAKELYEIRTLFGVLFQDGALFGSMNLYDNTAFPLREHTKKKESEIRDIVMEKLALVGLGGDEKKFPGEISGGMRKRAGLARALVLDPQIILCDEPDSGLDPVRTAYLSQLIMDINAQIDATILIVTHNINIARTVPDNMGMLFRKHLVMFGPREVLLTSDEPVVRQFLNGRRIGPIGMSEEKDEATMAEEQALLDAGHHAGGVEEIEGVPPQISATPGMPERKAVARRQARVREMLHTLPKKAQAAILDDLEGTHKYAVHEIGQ

In the case of `Nc1ncnc2c1ncn2[C@@H]1O[C@H](COP(=O)(O)OP(=O)(O)OP(=O)(O)O)[C@@H](O)[C@H]1O` [ATP], the “ADP-Glo kinase assay (luminescence)” value at MceG is “purified MceG exhibited ATPase activity”.
Consider `CC(C)CCC[C@@H](C)[C@H]1CC[C@H]2[C@@H]3CC=C4C[C@@H](O)CC[C@]4(C)[C@H]3CC[C@]12C` [cholesterol], for which the “band intensity at 65oC/50oC” value on CeoB [1] is “the presence of cholesterol resulted in an increase in CeoB thermostability”.
Turning to `CC(C)[C@@H](C)/C=C/[C@@H](C)[C@H]1CC[C@H]2C3=CC=C4C[C@@H](O)CC[C@]4(C)C3=CC[C@]12C` [dehydroergosterol, ergosta-5,7,9(11),22-tetraen-3β-ol], the “DHE fluorescence increase (ex 338 nm, em 381 nm)” value at CeoB [2] is “incubation of CeoB with DHE resulted in significantly higher DHE fluorescence signal”.

Source of the values: PMC12136442, “Cholesterol metabolism and intrabacterial potassium homeostasis are intrinsically related in Mycobacterium tuberculosis” (PLOS Pathogens, 2025).
